Here are results for 16 molecules from article PMC6361752, “Construction of a Quantitative Structure Activity Relationship (QSAR) Model to Predict the Absorption of Cephalosporins in Zebrafish for Toxicity Study” (Frontiers in Pharmacology, 2019).

The structures appear in SMILES notation.

The series concerns Zebrafish wild-type (WT) embryos. In words: Absorption (internal concentration) of cephalosporins in zebrafish embryos by LC-MS/MS. The conditions noted are these: 6 hpf-3 dpf; for k-value (slope of the dose-internal concentration linear regression): zebrafish embryos, 0.28, 1.0 and 2.0 mM, higher k = more readily absorbed. On the procedure: Zebrafish (Danio rerio) were fed at the Institute of Medicinal Biotechnology, Beijing Union Medical College, Beijing, China. […] Zebrafish wild-type (WT) embryos (n = 30) at 6 h post-fertilization (6 hpf) were used. After immersing the embryos in 2 mL of each drug solution (Drugs were dissolved in breeding water), they were incubated in a 20 mm dish for 3 days. […] The zebrafish bodies were collected at 3 days post-fertilization (dpf). The blank controls were zebrafish WT embryos (n = 30) that were incubated in breeding water.
Using a cell strainer (100 μm, BD-Falcon, United States), zebrafish bodies (30 in each dish) were washed five times with deionized water. Zebrafish bodies were triturated in 100 μL of deionized water, and then they were homogenized for 1 min. Zebrafish homogenate (50 μL) and internal standard (IS) working solution (10 μL) were individually transferred into a 1.5-mL microcentrifuge tube. Then, 200 μL of 1% formic acid-methanol solution was added into the tube. The samples were vortexed for 20 s. To precipitate proteins, the samples were centrifuged at 10,800 g for 10 min. The resultant supernatant (10 μL) was injected into LC-MS/MS for analysis.
The LC-MS/MS technique was performed by combining a 20A LC (Shimadzu, Kyoto, Japan) and a 6500 Q-Trap mass spectrometer (AB Sciex, Foster City, CA, United States), which was equipped with an electrospray ionization (ESI) source. Moreover, LC separations were performed on a reversed-phase ACE C18 column (5 cm × 2.1 mm ID, 3 μm particle size, Advanced Chromatography Technologies, Aberdeen, United Kingdom), which was attached to a corresponding guard column (1 cm × 2.1 mm ID, 3 μm particle size; Advanced Chromatography Technologies, United Kingdom). The mobile phase comprised of 5 mM ammonium formate (pH = 3.5) (solvent A) and acetonitrile (solvent B). The composition of the gradient was as follows: 2% solvent B for the first 0.1 min; 3.5 min, 90% solvent B; 6.0 min, 90% solvent B; 6.1 min, 2% solvent B; and 10 min, 2% solvent B. Mass spectrometric analysis was performed in a positive mode. Ion-spray voltage was set at 5000 V, and source temperature was kept fixed at 500°C. Curtain gas, gas 1, and gas 2 were 25, 40, and 40 psi, respectively. Multiple reaction monitoring (MRM) scan was used for the quantification of 19 analytes. In this scan, we determined the most intense product ion (PI) of each analyte. The entrance potential (EP) of all analytes was 10 eV. For each ion transition, dwell time and pause time were set to 30 and 5 ms, respectively. The Analyst 1.6.2 software (AB Sciex, Foster City, CA, United States) was used to perform data acquisition and analysis.
Dose-internal concentration curves were constructed by linear regression analysis. The slope of each linear regression was defined as k-value for each drug. […] The entire data set was split into the training set and test set by a random index, which was operated by DS4.0 software. The training set percentage was set at 80.
Using the aforementioned method, we analyzed the internal concentrations of cephalosporins in zebrafish. […] The calibration samples and administration samples were processed in a timely manner. The internal concentration of each cephalosporin in the zebrafish was calculated by using the corresponding calibration curve (Table 2). […] Dose-internal concentration curves were constructed by linear regression analysis (Figure 1). For each drug, the slope of each linear regression was defined as k-value. This parameter was used to evaluate the absorption capacity of each drug.

[1] abbreviates: zebrafish embryos exposed to 0.28 mM drug solution.
Setting [2] is: zebrafish embryos exposed to 1 mM drug solution.
[3] abbreviates: zebrafish embryos exposed to 2 mM drug solution.

Regarding `N[C@@H](C(=O)N[C@@H]1C(=O)N2C(C(=O)O)=C(Cl)CS[C@H]12)c1ccccc1` [Cefaclor], the “k-value (slope of the dose-internal concentration linear regression)” value worked out at 5.0027. Under setting [1], this molecule displayed an Internal concentration of 1.01 mM × 10^-5. The Internal concentration under setting [2] turned out to be 3.43 mM × 10^-5. The molecule also displayed an Internal concentration under setting [3] of 9.49 mM × 10^-5. The “k-value (slope of the dose-internal concentration linear regression)” value (listed as cefaclor) was greater than 5.

On to `CC1=C(C(=O)O)N2C(=O)[C@@H](NC(=O)[C@H](N)c3ccc(O)cc3)[C@H]2SC1` [Cefadroxil], for which the “k-value (slope of the dose-internal concentration linear regression)” value was 6.4617. The same molecule yielded an Internal concentration under setting [1] of 1.32 mM × 10^-5. In addition, under setting [2], the Internal concentration is recorded as 7.07 mM × 10^-5. Moreover, the Internal concentration under setting [3] was found to be 12.55 mM × 10^-5. Also, the “k-value (slope of the dose-internal concentration linear regression)” value (listed as cefadroxil) was greater than 5.

In the case of `CC1=C(C(=O)O)N2C(=O)[C@@H](NC(=O)[C@H](N)c3ccccc3)[C@H]2SC1` [Cefalexin], the “k-value (slope of the dose-internal concentration linear regression)” value was determined as 9.3280. The molecule also gave an Internal concentration under setting [1] of 1.01 mM × 10^-5. The molecule further yielded an Internal concentration under setting [2] of 5.48 mM × 10^-5. The molecule also returned an Internal concentration under setting [3] of 16.83 mM × 10^-5.

`CC(=O)OCC1=C(C(=O)O)N2C(=O)[C@@H](NC(=O)CSC(=NC(C)C)NC(C)C)[C@H]2SC1` [Cefathiamidine]: the “k-value (slope of the dose-internal concentration linear regression)” value came out at 0.6439. The Internal concentration under setting [1] was 0.49 mM × 10^-5. In addition, the Internal concentration under setting [2] was found to be 1.29 mM × 10^-5. The same molecule gave an Internal concentration under setting [3] of 1.63 mM × 10^-5. Moreover, the “k-value (slope of the dose-internal concentration linear regression)” value (listed as cefathiamidine) was less than 5.

As for `Cc1nnc(SCC2=C(C(=O)O)N3C(=O)[C@@H](NC(=O)Cn4cnnn4)[C@H]3SC2)s1` [Cefazolin], the “k-value (slope of the dose-internal concentration linear regression)” value amounted to 3.0851. For the same molecule, under setting [1], the Internal concentration stood at 8.56 mM × 10^-5. The Internal concentration under setting [2] is given as 13.95 mM × 10^-5. Besides, the Internal concentration under setting [3] came out at 14.19 mM × 10^-5. Moreover, the “k-value (slope of the dose-internal concentration linear regression)” value (listed as cefazolin) is listed as less than 5.

Turning to `CO/N=C(\C(=O)N[C@@H]1C(=O)N2C(C(=O)O)=C(CSc3nnnn3C)CS[C@H]12)c1csc(N)n1` [Cefmenoxime], the “k-value (slope of the dose-internal concentration linear regression)” value was 0.6493. Further, the Internal concentration under setting [1] came to 0.00 mM × 10^-5. Further, the Internal concentration under setting [2] is reported as 0.71 mM × 10^-5. This molecule also gave an Internal concentration under setting [3] of 1.14 mM × 10^-5. Further, the “k-value (slope of the dose-internal concentration linear regression)” value (listed as cefmenoxime) is reported as less than 5.

For `CO/N=C(\C(=O)N[C@@H]1C(=O)N2C(C(=O)O)=C(CSc3nc(C)c(CC(=O)O)s3)CS[C@H]12)c1csc(N)n1` [Cefodizime], the “k-value (slope of the dose-internal concentration linear regression)” value is 1.7709. The molecule also returned an Internal concentration under setting [1] of 0.51 mM × 10^-5. The molecule further had an Internal concentration under setting [2] of 0.94 mM × 10^-5. This molecule gave an Internal concentration under setting [3] of 3.47 mM × 10^-5. Also, the “k-value (slope of the dose-internal concentration linear regression)” value (listed as cefodizime) is recorded as less than 5.

In the case of `CCN1CCN(C(=O)N[C@@H](C(=O)N[C@@H]2C(=O)N3C(C(=O)O)=C(CSc4nnnn4C)CS[C@H]23)c2ccc(O)cc2)C(=O)C1=O` [Cefoperazone], the “k-value (slope of the dose-internal concentration linear regression)” value was found to be 6.5063. Under setting [1], this molecule displayed an Internal concentration of 1.30 mM × 10^-5. The Internal concentration under setting [2] is given as 5.75 mM × 10^-5. Besides, the Internal concentration under setting [3] was determined as 12.47 mM × 10^-5. Also, the “k-value (slope of the dose-internal concentration linear regression)” value (listed as cefoperazone) is given as greater than 5.

For the molecule `CO/N=C(\C(=O)N[C@@H]1C(=O)N2C(C(=O)O)=C(COC(C)=O)CS[C@H]12)c1csc(N)n1` [Cefotaxime], the Internal concentration is, setting by setting: under setting [1], 0.27 mM × 10^-5; under setting [2], 0.75 mM × 10^-5; under setting [3], 0.82 mM × 10^-5.

Regarding `CN(C)CCn1nnnc1SCC1=C(C(=O)O)N2C(=O)[C@@H](NC(=O)Cc3csc(N)n3)[C@H]2SC1` [Cefotiam], the “k-value (slope of the dose-internal concentration linear regression)” value was 2.0488. For the same molecule, the Internal concentration under setting [1] turned out to be 0.25 mM × 10^-5. Further, under setting [2], the Internal concentration is listed as 1.31 mM × 10^-5. Besides, under setting [3], the Internal concentration was determined as 3.73 mM × 10^-5. Moreover, the “k-value (slope of the dose-internal concentration linear regression)” value (listed as cefotiam) is less than 5.

As to `CO[C@@]1(NC(=O)Cc2cccs2)C(=O)N2C(C(=O)O)=C(COC(N)=O)CS[C@@H]21` [Cefoxitin], the “k-value (slope of the dose-internal concentration linear regression)” value is listed as 9.1638. Under setting [1], the Internal concentration stood at 2.22 mM × 10^-5. The Internal concentration under setting [2] is on record as 12.73 mM × 10^-5. Also, under setting [3], the Internal concentration is reported as 18.39 mM × 10^-5. Besides, where the note is “listed as cefoxitin”, the “k-value (slope of the dose-internal concentration linear regression)” value was greater than 5.

On to `CO/N=C(\C(=O)N[C@@H]1C(=O)N2C(C(=O)[O-])=C(C[n+]3cccc4c3CCC4)CS[C@H]12)c1csc(N)n1` [Cefpirome], for which the “k-value (slope of the dose-internal concentration linear regression)” value is listed as less than 5. This molecule also displayed an Internal concentration under setting [1] of 0.21 mM × 10^-5. In addition, under setting [2], the Internal concentration worked out at 0.86 mM × 10^-5. Further, the Internal concentration under setting [3] stood at 1.67 mM × 10^-5.

Regarding `CC1=C(C(=O)O)N2C(=O)[C@@H](NC(=O)[C@H](N)C3=CCC=CC3)[C@H]2SC1` [Cefradine], the “k-value (slope of the dose-internal concentration linear regression)” value stood at 9.8110. For the same molecule, the Internal concentration under setting [1] was found to be 3.15 mM × 10^-5. Further, under setting [2], the Internal concentration is recorded as 8.93 mM × 10^-5. Moreover, under setting [3], the Internal concentration was found to be 19.89 mM × 10^-5. For the same molecule, the “k-value (slope of the dose-internal concentration linear regression)” value (listed as cefradine) is reported as greater than 5.

As for `CC(C)(O/N=C(\C(=O)N[C@@H]1C(=O)N2C(C(=O)[O-])=C(C[n+]3ccccc3)CS[C@H]12)c1csc(N)n1)C(=O)O` [Ceftazidime], the “k-value (slope of the dose-internal concentration linear regression)” value stood at 3.1702. For the same molecule, under setting [1], the Internal concentration amounted to 0.00 mM × 10^-5. The Internal concentration under setting [2] came out at 2.45 mM × 10^-5. Also, the Internal concentration under setting [3] was 5.47 mM × 10^-5. Further, the “k-value (slope of the dose-internal concentration linear regression)” value (listed as ceftazidime) is given as less than 5.

For the molecule `O=C(Cn1cnnn1)N[C@@H]1C(=O)N2C(C(=O)O)=C(CSc3nncs3)CS[C@H]12` [Ceftezole], the “k-value (slope of the dose-internal concentration linear regression)” value is 5.2798. The Internal concentration under setting [1] is on record as 3.95 mM × 10^-5. Besides, the Internal concentration under setting [2] is 7.08 mM × 10^-5. This molecule also displayed an Internal concentration under setting [3] of 12.96 mM × 10^-5. Besides, under “listed as ceftezole”, the “k-value (slope of the dose-internal concentration linear regression)” value is recorded as greater than 5.

Take `CO/N=C(\C(=O)N[C@@H]1C(=O)N2C(C(=O)O)=CCS[C@H]12)c1csc(N)n1` [Ceftizoxime]: the “k-value (slope of the dose-internal concentration linear regression)” value came out at 7.1156. For the same molecule, the Internal concentration under setting [1] is 1.17 mM × 10^-5. The molecule also yielded an Internal concentration under setting [2] of 3.70 mM × 10^-5. Moreover, the Internal concentration under setting [3] was 13.15 mM × 10^-5. Moreover, the “k-value (slope of the dose-internal concentration linear regression)” value (listed as ceftizoxime) was greater than 5.
